# Data as given in patent publication US6914049B2, “IGF-binding protein-derived peptide or small molecule” (Bioexpertise, LLC, priority 2001, dated 2005).
# Assays:
# [1] = system: HEK293 cells; experiment: Co-apoptotic activity of IGFBP-3 and paclitaxel, caspase-3; type: cell-based, human; settings: 200 ng/ml antibody, 30 minutes pretreatment; FIG. 8B
# Method: Co-aptotic activity of IGFBP-3 in combination with paclitaxel was measured in the HEK293 assay described in Example 1. HEK293 cells were grown in DMEM plus 8% FCS, then incubated in 0.3 ng/ml of paclitaxel (TAXOL®), 50 ng/ml of IGFBP-3, or a combination of the two. Some cultures were pretreated for 30 minutes with 200 ng/ml of anti-beta-1-integrin antibody (Pharmingen). Caspase-3 was assayed using the ApoAlert caspase-3 kit from Clontech Inc.
# [2] = system: MDA-MB-231 cells; experiment: Co-apoptotic activity of IGFBP-3 with cisplatin; type: cell-based; settings: MDA-MB-231 cells and cisplatin; FIG. 8C
# [3] = Solubility / concentration in phosphate buffered saline; type: physicochemical; settings: PBS
# From the text: Formulation: The central domain of IGFBP-3 is exquisitely sensitive to proteolysis. Due to the limited, solubility of IGFBP-3, its low stability and pronounced tendency to aggregate, the development of suitable formulations and convenient routes of delivery for intact IGFBP-3 is challenging.
# [4] = system: HEK 293 cells; experiment: IGF-independence of apoptosis stimulation, caspase-3; type: cell-based, human
# Method: HEK 293 cells were cultured under stressed conditions (low serum or in the presence of paclitaxel) with and without IGFBP-3 (50 ng/ml) or MBD2 (50 ng/ml). Apoptosis was assayed using the caspase-3 assay as described in Example 1.
# [5] = IMAC of IGFBP-3 on Ni++ and Zn++ resins; type: binding
# Method: Panels a and b (FIGS. 5A and 5B) show SDS-PAGE analysis of samples from Ni^++ and Zn^++ IMAC, respectively. FT indicates column flowthrough; W indicates wash; 50 indicates 50 mM imidazole wash; 60 indicates 60 mM imidazole wash; E indicates 1 M imidazole elution buffer; S indicates 1 M EDTA stripping buffer.
# This previously unknown property of IGFBP-3 is intriguing and has a number of practical implications among which the ability to capture products using immobilized metal affinity (IMAC) resins leads to a number of potential applications in therapeutic, high-throughput discovery, and other research arenas.
# [6] = system: HEK293 cells; experiment: Caspase-3 apoptosis assay on nutritionally stressed HEK293 cells (Examples 1-2); type: cell-based, human; settings: FIG. 4A/4B
# Method: Human embryonal kidney 293 (HEK293) cells were grown in Dulbecco's Modified Eagle Medium (D-MEM) supplemented with fetal calf serum at 2%, 4%, 6%, or 8%. When the cells reached 80-85% confluency (cell titer approximately 2.1×10^6 cells per plate), 5 μg of IGFBP-3 or buffer control was added to each plate. The cells were incubated at 37° C. overnight. The next day the medium was removed and the cells were rinsed with trypsin-EDTA (0.25% trypsin, 1 mM EDTA) plus 1× phosphate buffered saline. The cells were centrifuged and the supernatant was removed. ApoAlert caspase-3 assay kit from Clontech Inc (Palo Alto, Calif.) was used to measure apoptosis. The cells were resuspended in 50 μl of chilled cell lysis buffer and incubated on ice for 10 minutes. The resulting cell, lysates were centrifuged at 14000 rpm in a Beckman microcentrifuge for 3 minutes at 4 C. The supernatant was transferred to new tubes and 50 μl of 2× reaction buffer/DTT plus 5 μl of 1 mM caspase-3 substrate was added to each tube. After incubating at 37 C. for 1 hour in a water bath, the samples were read at 405 nm in a microplate reader.
# Peptides derived from IGFBP-3 were tested for pro-apoptotic activity essentially as described in Example 1.
# The peptides tested are described in Table 1 (peptides marked with an asterisk include a hexahistidine tag).
# [7] = Binding of IGFBP-3 to IMAC (NTA) resin without metal; settings: metal none; approx. 1 mg loaded
# Method: (§1) Binding of IGFBP-3 to immobilized metal affinity chromatography (IMAC) resin charged with various metals was measured. Approximately 1 mg of IGFBP-3 was loaded onto each column (NTA resin, Sigma Chemical Co., St. Louis, Mo.). The “percentage bound” was calculated by measuring OD280 of load, flow-through, wash and eluate at 60 mM imidazole. Typical recoveries were 85-95%.
# [8] = Metal-binding of peptides to Ni-NTA resin; settings: percentage of loaded peptide bound to Ni-NTA resin; 1-1.5 mg loaded
# Method: (§2) Apoptotic activity is expressed in arbitrary caspase-3 units normalized to MBD2 on a molar basis (MBD2 activity was defined as 100 units (avg. of 3 experiments); “nd” indicates “not done”; “ps” indicates phosphoserine. Metal-binding is expressed as a percentage of loaded peptide bound to a Ni-NTA resin; approximately 1-1.5 mg of peptide were loaded on the column. Cell uptake was determined using genetic fusions to GFP as described in Example 9.
# [9] = Binding of IGFBP-3 to IMAC (NTA) resin charged with metal; settings: approx. 1 mg loaded
# Method: as §1
# [10] = system: HEK 293 cells; experiment: Co-apoptotic activity of MBD peptides and paclitaxel, caspase-3; type: cell-based, human; settings: normalized to MBD2 = 100 on a molar basis; peptide 50 ng/ml, 0.3 ng/ml paclitaxel, 8 hours
# Method: Peptides (50 ng/ml) were added to 80% confluent HEK 293 cells grown in DMEM supplemented with 0.3 ng/ml paclitaxel concurrent with peptide. Caspase-3 activity was measured in cell extracts 8 hours post-addition.
# as §2
# [11] = system: MA-16C mammary adenocarcinoma tumors; experiment: MA-16C mammary adenocarcinoma tumor implants; type: in vivo, female C3H mice; settings: for Lung Metastases: animals with metastases/animals
# Method: Fragments of MA-16C mammary adenocarcinoma tumors were implanted subcutaneously into female C3H mice (8-11 animals per group). The animals were treated with vehicle alone, IGFBP-3 (4 mg/kg/day for 21 days by subcutaneous injection), doxorubicin (2 mg/kg on days 1 and 8 by intravenous injection), or IGFBP-3 plus doxorubicin. A separate study was performed where the animals were treated with vehicle alone, 5-fluorouracil (10 mg/kg on days 1-5 by intraperitoneal injection), or IGFBP-3 plus 5-fluorouracil. Tumor size was measured at day 18, and the mice were sacrificed at day 21, and the implanted tumors were removed for determination of caspase-3 activity (a marker of apoptosis-only performed for DOX groups).
# [12] = system: bax-alpha expression in HEK 293 cells; experiment: Bax-alpha and bcl-2 mRNA expression; type: cell-based, human; settings: paclitaxel 0.3 ng/ml, 50 ng/ml; FIG. 14A
# Method: HEK 293 cells were cultured as described in Example 1, with the addition paclitaxel (0.3 ng/ml) and either IGFBP-3 or MBD2 at 50 ng/ml. Bax-alpha and bcl-2 mRNA and caspase 3 activity were assayed.
# [13] = system: HEK293 cells; experiment: Co-apoptotic activity with paclitaxel in presence of plasma proteins; type: cell-based, human; settings: 50 ng/ml, 0.3 ng/ml paclitaxel, eight hours
# Method: Co-apoptotic activity of MBD peptides or IGFBP-3 with paclitaxel was tested in the presence or absence of two plasma proteins; fibronectin and fibrinogen. MBD peptides or IGFBP-3, (50 ng/ml), 0.3 ng/ml paclitaxel, and plasma proteins (200 ng/ml) were added to 80% confluent HEK293 cells grown in DMEM essentially as described in Example 8. Caspase-3 was measured after an eight hour incubation.
# Apoptotic activity was calculated in arbitrary caspase-3 units normalized to MBD2 (MBD2 activity was defined as 100 units) Results are summarized in Table 4 (average of 3 experiments).
substance,measurement,setting,value
"IGFBP-3: full-length, 264 aa, IGFBP-3 (insulin-like growth factor binding protein-3)",co-apoptotic activity after anti-beta-1-integrin antibody pretreatment,[1],greatly inhibits the co-apoptotic activity
same,co-apoptotic activity,[2],failed to demonstrate any co-apoptotic activity
same,maximum solubility in phosphate buffered saline,[3],7000 µg/mL
same,IGF dependence of pro-apoptotic activity,"[4]; 0.3 ng/ml paclitaxel, alone or with Y60L-IGF-I, FIG. 11C",independent of the presence of IGF
same,pro-apoptotic activity under stressed conditions,"[4]; low serum or paclitaxel, 50 ng/ml, FIGS. 11A, 11B",nearly identical
same,binding to IMAC resins,"[5]; Ni^++ and Zn^++ IMAC, SDS-PAGE",bound both IMAC resins effectively
same,imidazole concentration that elutes from the resin,[5]; immobilized nickel and zinc,60 mM
same,pro-apoptotic activity,[6],has pro-apoptotic activity
same,% IGFBP-3 bound,[7],0.0%
same,Metal-binding,[8],93 percentage
same,% IGFBP-3 bound,[9]; Ca^++,0.0%
same,% IGFBP-3 bound,[9]; Co^++,95.1%
same,% IGFBP-3 bound,[9]; Fe^2+,46.6%
same,% IGFBP-3 bound,[9]; Fe^3+,55.1%
same,% IGFBP-3 bound,[9]; Mg^++,38.8%
same,% IGFBP-3 bound,[9]; Mn^++,20.1%
same,% IGFBP-3 bound,[9]; Ni^++,97.6%
same,% IGFBP-3 bound,[9]; Zn^++,59.5%
same,Apoptotic Activity,[10],585 arbitrary caspase-3 units
same,Tumor Weight,"[11]; 5FU study, 5-fluorouracil 10 mg/kg ip days 1-5, IGFBP-3 4 mg/kg/day sc",3147 + 952 mg
same,Lung Metastases,[11]; 5FU study,1/7
same,Tumor Weight,"[11]; DOX study, IGFBP-3 4 mg/kg/day sc 21 days, doxorubicin 2 mg/kg iv days 1 and 8",2632 + 554 mg
same,Lung Metastases,[11]; DOX study,1/7
same,Caspase-3,"[11]; DOX study, tumors removed at day 21",3.79 ± 3.25
same,bax-alpha expression,[12],stimulates bax-alpha expression
same,co-apoptotic activity with Fibrinogen,[13]; Fibrinogen 200 ng/ml,1.1 arbitrary caspase-3 units
same,co-apoptotic activity with Fibronectin,[13]; Fibronectin 200 ng/ml,3.5 arbitrary caspase-3 units
same,"co-apoptotic activity, plasma protein none",[13]; no plasma protein,100.0 arbitrary caspase-3 units
